In assay [1] the target is T1, RARβ receptors (Homo sapiens, UniProt P10826).
T1 sequence (P10826 183-417 limits assumed): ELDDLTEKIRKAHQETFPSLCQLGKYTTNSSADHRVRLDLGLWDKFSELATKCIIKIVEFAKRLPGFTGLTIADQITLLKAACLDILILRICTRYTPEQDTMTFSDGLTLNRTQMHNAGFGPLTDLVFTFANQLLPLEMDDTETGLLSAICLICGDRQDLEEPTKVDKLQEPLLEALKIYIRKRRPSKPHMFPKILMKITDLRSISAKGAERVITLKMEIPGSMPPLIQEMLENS
The assay can be described thus: chimeric receptor transactivation assay, RARβ. The format is cell-based. The following applies: agonist activity. The text has this: (§1) For example, a chimeric receptor transactivation assay which tests for agonist-like activity in the RARα, RARβ, RARγ, RXRα receptor subtypes, and which is based on work published by Feigner P. L. and Holm M. (1989) Focus, 112 is described in detail in U.S. Pat. No. 5,455,265. The specification of U.S. Pat. No. 5,455,265 is hereby expressly incorporated by reference.
(§2) The results obtained in this assay are expressed in EC50 numbers, as they are also in the chimeric receptor transactivation assay.

Assay [2] addresses T2, RARγ receptors (Homo sapiens, UniProt P13631).
T2 sequence (P13631 185-419 limits assumed): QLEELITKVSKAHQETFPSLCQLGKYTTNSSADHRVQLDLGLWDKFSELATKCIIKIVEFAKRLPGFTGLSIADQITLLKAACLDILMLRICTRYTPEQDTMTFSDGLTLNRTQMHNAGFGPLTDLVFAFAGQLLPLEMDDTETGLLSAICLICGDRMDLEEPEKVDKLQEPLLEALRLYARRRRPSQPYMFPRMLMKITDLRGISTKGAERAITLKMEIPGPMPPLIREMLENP
Briefly: chimeric receptor transactivation assay, RARγ. The format is cell-based. To be noted: agonist activity.
From the text: as §1, §2

The test system of assay [3] is SKBR-3 cells. The assay can be described thus: cell proliferation assay (BrdU incorporation), SKBR-3. The format is cell-based, human. How it is done: (§3) The SKBR-3 and T47-D cell cultures in which the assay procedures were performed are also well known and are available from sources well known in the art. Specifically, as is known, T-47D is an estrogen receptor positive (ER^+) human breast cancer cell line, and SK-BR-3 is an estrogen receptor negative (ER^−) human breast cancer cell line. The assay procedure which itself is well known in the art, involves determining incorporation of 5-bromo-2′-deoxyuridine (BrdU) into the cells. As is known, incorporation of less BrdU represents less cell proliferation (inhibition of cell proliferation), and this assay is accepted in the art as a measure of anti-proliferative or anti-tumor activity of the assayed agent or agents.
(§4) The estrogen receptor-positive (ER^+) cell line T-47D and the ER^−-cell line SK-BR-3 were cultured in Dulbecco's modification of Eagle's medium (DMEM Gibco BRL, Gaithersburg, Md.) supplemented with 10% fetal bovine serum (HyClone, Logan, Utah), 2 mM L-glutamine and 1% antibiotics-antimycotics (Gibco BRL). Cell lines were obtained from the American Type Culture Collection (ATCC, Rockville, Md., HTB-133 and HTB-30 for T47-D and SKBR-3, respectively). Cells were cultured at 37° C. in a humidified atmosphere containing 5% CO2.
(§5) Proliferation of cancer cell lines was determined using a commercial cell proliferation kit (Roche Diagnostics), essentially following the instructions of the manufacturer. Cells were seeded into 96-well tissue culture plates (Corning Incorporated, Corning, N.Y.) at a concentration of 3000 cells/well. After 24 hours, cells were treated with Compound 2 (AGN195183) and/or interferons (IFNs) or solvent alone. The appropriate concentrations of Compound 2 (AGN195183) used in this study were between 10^−11M and 10^−6M; IFNs concentrations were between 25 and 1000 Unit/ml. Culture media were changed every 72 hours. After 7days, 10 μl of 5-bromo-2′-deoxyuridine (BrdU) was added to each well. Incubation with BrdU was stopped 24 hours later by adding 100 μl of anti-BrdU antibody to each well. The amount of BrdU incorporated into the DNA of proliferating cells was assessed by measuring absorbance at 450 nm. Each experiment was performed in triplicate.
(§6) The growth inhibition observed in the cell cultures as a result of treatment with a combination of Compound 2 (AGN195183) of the invention and the interferons (IFNs) was analyzed for synergistic and additive effects.
(§7) Synergism was defined as: %A×% B>%AB
(§8) Additivity was defined as: %A×%B=%AB
(§9) where A and B are the effects of each individual agent and AB is the effect of the combination, in accordance with the teaching of Aapro et al., Cancer Chemother. Pharmacol., 10: 161 -166, 1983, and Marth et al., J. Natl. Cancer Inst., 77:1197-1202, 1986), both of which are expressly incorporated herein by reference.
(§10) Referring now to the graphs of FIGS. 1 through 12, each of these represents the results obtained in the above described assays where SKBR-3 and T47-D cells, respectively, were treated with a combination of Compound 2 of the invention and human recombinant interferon (IFN) α, β, and γ, respectively. The graph of FIG. 13 illustrates the results of treatment of these two cell cultures only with Compound 2 of the invention, without the use of any other anti-tumor agent. In each of these graphs the incorporation of 5-bromo-2′-deoxyuridine (BrdU) is plotted on the Y (vertical) axis and varying concentration of Compound 2 of the invention or varying concentration of IFNα. IFNβ or of IFNγ, respectively is plotted on the X (horizontal) axis. The concentration of the interferons is expressed in international units, as is accepted in the art, whereas the molar concentration of Compound 2 is plotted on a logarithmic scale. […]
In general terms: Incorporation of labelled thymidine or its analogues reports DNA synthesis.

The test system of assay [4] is T47-D cells. Briefly: cell proliferation assay (BrdU incorporation), T47-D. The class given is cell-based, human. As for the experimental part:
as §3, §4, §5, §6, §7, §8, §9, §10

The structures appear in SMILES notation. A value given as a limit tells only on which side of the number the result lay.

From patent publication US6387950B2, “Treatment of tumors with RARα selective retinoid compounds in combination with other anti-tumor agents” (Allergan Sales, Inc., priority 2000, dated 2002) come the findings set out here.

One may read the EC50 as the midpoint of the concentration-response curve. Lower therefore signals an effect from little substance.

Take `CC1(C)CCC(C)(C)c2c1cc(C(=O)Nc1cc(F)c(C(=O)O)c(F)c1)c(O)c2Cl` [Compound 2, 2,6-Difluoro-4-[(3-hydroxy-4-chloro-5,5,8 8-tetramethyl-5,6,7,8-tetrahydronaphthalene-2-carbonyl) -amino]-benzoic acid]: the EC50 in assay [1] and in assay [2] was above 10 µM in each case. The “anti-proliferative effect of the combination (BrdU incorporation)” value (“anti-proliferative effect” for short) in assay [3] (Compound 2 10 nM, IFNα varied, FIG. 1) is reported as “synergistic effect”; in assay [3] (Compound 2 10 nM, IFNα varied, FIG. 1, listed as AGN 195183), “synergism”; in assay [3] (Compound 2 10 nM, IFNβ varied, FIG. 2), “significant synergistic effect”; in assay [3] (Compound 2 10 nM, IFNβ varied, FIG. 2, listed as AGN 195183), “synergism”; in assay [3] (Compound 2 10 nM, IFNγ varied, FIG. 3) it was “significant synergistic effect”; in assay [3] (Compound 2 10 nM, IFNγ varied, FIG. 3, listed as AGN 195183), “synergism”. The “anti-proliferative effect” value was “significant synergistic effect” in assay [3] (IFNα 100 U/ml, Compound 2 varied, FIG. 4); “synergism” in assay [3] (IFNα 100 U/ml, Compound 2 varied, FIG. 4, listed as AGN 195183); “significant synergistic effect” in assay [3] (IFNβ 100 U/ml, Compound 2 varied, FIG. 5); “synergism” in assay [3] (IFNβ 100 U/ml, Compound 2 varied, FIG. 5, listed as AGN 195183); “significant synergistic effect” in assay [3] (IFNγ 100 U/ml, Compound 2 varied, FIG. 6); “synergism” in assay [3] (IFNγ 100 U/ml, Compound 2 varied, FIG. 6, listed as AGN 195183). The “anti-proliferative effect” value in assay [4] (Compound 2 100 nM, IFNα varied, FIG. 7) is “additive”; in assay [4] (Compound 2 100 nM, IFNβ varied, FIG. 8), “significantly synergistic”; in assay [4] (Compound 2 100 nM, IFNβ varied, FIG. 8, listed as AGN 195183), “synergism”; in assay [4] (Compound 2 100 nM, IFNγ varied, FIG. 9) it was “significantly synergistic”; in assay [4] (Compound 2 100 nM, IFNγ varied, FIG. 9, listed as AGN 195183), “synergism”; in assay [4] (IFNα 100 U/ml, Compound 2 varied, FIG. 10), “not very effective and merely additive”. In addition, the “anti-proliferative effect” value in assay [4] (IFNβ 100 U/ml, Compound 2 varied, FIG. 11) is listed as “synergistic inhibition”; in assay [4] (IFNβ 100 U/ml, Compound 2 varied, FIG. 11, listed as AGN 195183) it was “synergism”; in assay [4] (IFNγ 100 U/ml, Compound 2 varied, FIG. 12) it was “synergistic inhibition was observed, in the cotreatment with IFNγ only at higher concentrations of Compound 2”; in assay [4] (IFNγ 100 U/ml, Compound 2 varied, FIG. 12, listed as AGN 195183) it was “synergism”.
